Results taken from article PMC3353862.
≈ marks a conversion by molar mass, not a printed value.

Legend:
[1] = test system: bacterial protein synthesis (aminoacylation/translation system); assay: aminoacylation/translation (A/T) assay; format: biochemical; settings: for IC50: A/T assay, Table 1, read-out: IC50
E. faecalis = assay: Broth microdilution MIC testing; format: cell-based, Enterococcus faecalis; settings: for MIC: Enterococcus faecalis, read-out: MIC E. fae; for MIC E. fae: E. faecalis
M. catarrhalis = assay: Broth microdilution MIC testing; format: cell-based, Moraxella catarrhalis; settings: for MIC: Moraxella catarrhalis
H. influenzae = assay: Broth microdilution MIC testing; format: cell-based, Haemophilus influenzae; settings: for MIC: Haemophilus influenzae, read-out: MIC H. flu; for MIC H. flu: H. influenzae
S. pneumoniae = assay: Broth microdilution MIC testing; format: cell-based, Streptococcus pneumoniae; settings: for MIC: Streptococcus pneumoniae, read-out: MIC S. pneumo; for MIC S. pneumo: S. pneumoniae
S. aureus = assay: Broth microdilution MIC testing; format: cell-based, Staphylococcus aureus; settings: for MIC: Staphylococcus aureus, read-out: MIC S. aureus
E. coli tolC mutants = assay: Broth microdilution MIC testing; format: cell-based, Escherichia coli; settings: for MIC: Escherichia coli, read-out: MIC E. coli tolC; for MIC E. coli tolC: E. coli tolC mutants
[2] = test system: E. coli modified with PMBN; assay: Broth microdilution MIC testing; format: cell-based, Escherichia coli; settings: for MIC: Escherichia coli, read-out: MIC E. coli +PMBP; for MIC E. coli +PMBP: E. coli modified with PMBN

Row | SMILES | IC50 [1] | MIC (E. faecalis) | MIC (M. catarrhalis) | MIC (H. influenzae) | MIC (S. pneumoniae) | MIC (S. aureus) | MIC (E. coli tolC mutants) | MIC [2] | MIC E. fae (E. faecalis) | MIC M. cat (M. catarrhalis) | MIC H. flu (H. influenzae) | MIC S. pneumo (S. pneumoniae) | MIC S. aureus (S. aureus) | MIC E. coli tolC (E. coli tolC mutants) | MIC E. coli +PMBP [2] | biochemical activity in the A/T assay [1]
1 | O=c1nc(-c2ccccn2)nc2ccn(Cc3ccc(Cl)cc3)cc1-2 [Compound 332055] | 16.4 µM | 64 µg/mL (≈ 183 µM) | 32 µg/mL (≈ 91.7 µM) | 16 µg/mL (≈ 45.9 µM) | 128 µg/mL (≈ 367 µM) | > 128 µg/mL | 128 µg/mL (≈ 367 µM) | 64 µg/mL (≈ 183 µM) |  |  |  |  |  |  |  | 
2 | COc1cc2c(cc1CN1CCc3nc(-c4ccccn4)[nH]c(=O)c3C1)OCO2 [Compound 323233] | > 300 µM |  |  |  |  |  |  |  | 128 µg/mL (≈ 326 µM) | 4 µg/mL (≈ 10.2 µM) | 16 µg/mL (≈ 40.8 µM) | 32 µg/mL (≈ 81.5 µM) | > 128 µg/mL | 64 µg/mL (≈ 163 µM) | 64 µg/mL (≈ 163 µM) | 
3 | COc1cccc(CN2CCc3nc(-c4ccccn4)[nH]c(=O)c3C2)c1O [Compound 323197] | 4.4 µM |  |  |  |  |  |  |  | > 128 µg/mL | 16 µg/mL (≈ 43.9 µM) | 32 µg/mL (≈ 87.8 µM) | 128 µg/mL (≈ 351 µM) | > 128 µg/mL | > 128 µg/mL | > 128 µg/mL | 
4 | O=c1[nH]c(-c2ccccn2)nc2c1CN(Cc1ccccc1OCc1ccccn1)CC2 [Compound 323192] | > 300 µM |  |  |  |  |  |  |  | 128 µg/mL (≈ 301 µM) | 4 µg/mL (≈ 9.4 µM) | 64 µg/mL (≈ 150 µM) | 32 µg/mL (≈ 75.2 µM) | > 128 µg/mL | 128 µg/mL (≈ 301 µM) | 64 µg/mL (≈ 150 µM) | 
5 | COc1ccc(CN2CCc3nc(-c4ccccn4)nc(O)c3C2)cc1 [Compound 321529] | 2.6 µM | 128 µg/mL (≈ 367 µM) | 2 µg/mL (≈ 5.74 µM) | 8 µg/mL (≈ 23 µM) | 32 µg/mL (≈ 91.8 µM) | > 128 µg/mL | 32 µg/mL (≈ 91.8 µM) | 128 µg/mL (≈ 367 µM) |  |  |  |  |  |  |  | 
6 | O=c1[nH]c(-c2ccccn2)nc2c1CN(Cc1cc(F)cc(F)c1)CC2 [Compound 323230] | 2 µM |  |  |  |  |  |  |  | 32 µg/mL (≈ 90.3 µM) | 0.5 µg/mL (≈ 1.41 µM) | 8 µg/mL (≈ 22.6 µM) | 8 µg/mL (≈ 22.6 µM) | 32 µg/mL (≈ 90.3 µM) | 16 µg/mL (≈ 45.2 µM) | 16 µg/mL (≈ 45.2 µM) | 
7 | COc1ccc(CN2CCc3nc(-c4ccccn4)[nH]c(=O)c3C2)cc1O [Compound 323217] | 4.8 µM |  |  |  |  |  |  |  | > 128 µg/mL | 32 µg/mL (≈ 87.8 µM) | 32 µg/mL (≈ 87.8 µM) | > 128 µg/mL | > 128 µg/mL | > 128 µg/mL | > 128 µg/mL | 
8 | O=c1[nH]c(-c2ccco2)nc2c1CN(Cc1ccc(Cl)cc1)CC2 [Compound 332053] | > 300 µM | > 128 µg/mL | > 128 µg/mL | > 64 µg/mL | > 128 µg/mL | > 128 µg/mL | > 128 µg/mL | > 128 µg/mL |  |  |  |  |  |  |  | abolished all biochemical activity
9 | COc1cc(CN2CCc3nc(-c4ccccn4)[nH]c(=O)c3C2)ccc1O [Compound 323215] | 2.1 µM |  |  |  |  |  |  |  | > 128 µg/mL | 128 µg/mL (≈ 351 µM) | 64 µg/mL (≈ 176 µM) | > 128 µg/mL | > 128 µg/mL | > 128 µg/mL | > 128 µg/mL | 
10 | COc1cc(CN2CCc3nc(-c4ccccn4)[nH]c(=O)c3C2)ccc1OCCO [Compound 323214] | > 300 µM |  |  |  |  |  |  |  | > 128 µg/mL | > 128 µg/mL | > 128 µg/mL | > 128 µg/mL | > 128 µg/mL | > 128 µg/mL | > 128 µg/mL | 
11 | O=C(c1ccc(Cl)cc1)N1CCc2nc(-c3ccccn3)[nH]c(=O)c2C1 [Compound 323353] | 1.7 µM | > 128 µg/mL | 8 µg/mL (≈ 21.8 µM) | 32 µg/mL (≈ 87.2 µM) | 128 µg/mL (≈ 349 µM) | > 128 µg/mL | 128 µg/mL (≈ 349 µM) | 128 µg/mL (≈ 349 µM) |  |  |  |  |  |  |  | 
12 | CCOc1cc2c(cc1CN1CCc3nc(-c4ccccn4)[nH]c(=O)c3C1)OCO2 [Compound 323199] | 1.1 µM |  |  |  |  |  |  |  | 128 µg/mL (≈ 315 µM) | 1 µg/mL (≈ 2.46 µM) | 16 µg/mL (≈ 39.4 µM) | 16 µg/mL (≈ 39.4 µM) | 128 µg/mL (≈ 315 µM) | 32 µg/mL (≈ 78.7 µM) | 32 µg/mL (≈ 78.7 µM) | 
13 | COc1cccc(CN2CCc3nc(-c4ccccn4)[nH]c(=O)c3C2)c1OC [Compound 323223] | 14.7 µM |  |  |  |  |  |  |  | > 128 µg/mL | 4 µg/mL (≈ 10.6 µM) | 32 µg/mL (≈ 84.6 µM) | 32 µg/mL (≈ 84.6 µM) | > 128 µg/mL | 128 µg/mL (≈ 338 µM) | 64 µg/mL (≈ 169 µM) | 
14 | Oc1nc(-c2cccnc2)nc2c1CN(Cc1cccc(F)c1)CC2 [Compound 321376] | > 300 µM |  |  |  |  | > 128 µg/mL | > 128 µg/mL |  |  |  |  |  |  |  |  | 
